One experiment deals with A. baumannii ATCC 19606. It is filed as cell-based. The settings on record: ATCC 19606, 22 h. How it is done: (§1) MICs of compounds were determined following CLSI guidelines using the microbroth dilution method in polypropylene plates. Selected Gram-negative bacterial strains (see Table S2 for strain sources) were taken from glycerol stocks and grown overnight on blood agar. Individual colonies were selected and grown in Tryptic Soy Broth (TSB) to an OD600 of 0.5. Compounds were diluted in Mueller Hinton Broth (MHB) supplemented with Mg^2+ and Ca^2+ at final concentrations of 12 and 20 mg/L, respectively (CAMHB). 50 μL was used for each well, and compounds were assessed in triplicates. Bacterial culture was diluted in CAMHB to 10^6 CFU/mL, yielding 5 × 10^5 CFU/mL upon addition of 50 μL of culture to 50 μL of compound solution. Positive and negative (sterility) controls were present on each plate. Plates were sealed with a semipermeable membrane and incubated for 22 h (A. baumannii) or 18 h (other strains) under shaking at 37 °C.

The next experiment has as its system E. coli ATCC 25922. It is filed as cell-based. The conditions noted are these: ATCC 25922, 18 h. How it is done: as §1
The test system of the next experiment is E. coli BW25113. The experiment is classed as cell-based. The conditions noted are these: BW25113, 18 h. How it is done:
as §1

Another experiment concerns E. coli JW3594 (ΔwaaD). It is filed as cell-based. The settings on record: truncated LPS, CLSI microbroth dilution, CAMHB, 18 h, 37 °C, triplicate. How it is done:
as §1
For orientation: In broth dilution the organism is exposed to a series of concentrations in liquid medium.

Another experiment deals with E. coli JW3596 (ΔwaaC). It is filed as cell-based. The conditions noted are these: truncated LPS, CLSI microbroth dilution, CAMHB, 18 h, 37 °C, triplicate. How it is done: as §1
Another experiment concerns E. coli mcr-1. The experiment is classed as cell-based. The settings on record: CLSI microbroth dilution, CAMHB, 18 h, 37 °C, triplicate. How it is done: as §1
In a further experiment the test system is K. pneumoniae ATCC 13883. It is filed as cell-based. The conditions noted are these: ATCC 13883, 18 h. How it is done:
as §1

For a further experiment, the system named is P. aeruginosa 2018-007. It is filed as cell-based. The conditions noted are these: 2018-007, 18 h. How it is done:
as §1

For the next experiment, the system named is P. aeruginosa ATCC 10145. It is filed as cell-based. The conditions noted are these: ATCC 10145, 18 h. How it is done:
as §1

Another experiment relates to P. aeruginosa ATCC 27853. It is filed as cell-based. The conditions noted are these: ATCC 27853, 18 h. How it is done: as §1
The subject of the next experiment is P. aeruginosa NRZ03961. It is filed as cell-based. The settings on record: NRZ03961, 18 h. How it is done:
as §1

Experiment [1] deals with polymyxin-resistant (mcr-1 positive) E. coli. As to the kind of experiment: microbe, parasite or virus in culture. The conditions noted are these: E. coli mcr-1, checkerboard. It is filed as cell-based. How it is done:
(§2) Selected Gram-negative bacterial strains were taken from glycerol stocks and grown overnight on blood agar. A single colony was inoculated in TSB broth at 37 °C until an optical density of 0.5 at 600 nm (OD600) was reached. The bacterial suspension was diluted in freshly prepared CAMHB to 10^6 CFU/mL. Compounds were diluted along the plate, using 25 μL of CAMHB for each dilution. Antibiotic concentrations were prepared separately in a multiwell reservoir, including a control without antibiotic. Of each antibiotic stock, 25 μL was added to three columns to obtain triplicates for every condition. To each 50 μL containing well was then added 50 μL of the 10^6 CFU/mL bacterial suspension, and the plates were sealed with breathable seals. After incubation for 18 h at 37 °C while shaking, the seals were removed and the density of the bacterial suspensions was measured at 600 nm (OD600) using a Tecan Spark plate reader. The OD600 values were transformed to a 2D gradient with the negative control as the minimum and the positive control as the maximum. The FICI was calculated using the following equation: [drawing 1] with MSCant and MSCcomp indicating the optimal synergistic concentration of antibiotic and compound and MICant and MICcomp, the corresponding MICs of the individual compounds. An FICI ≤ 0.5 indicates synergy.[48]

The test system of experiment [2] is polymyxin-sensitive E. coli ATCC 25922. As to the kind of experiment: microbe, parasite or virus in culture. The experiment is classed as cell-based. How it is done: as §2
For experiment [3], the system named is E. coli ATCC 25922 (smooth LPS). The experiment can be described thus: NPN uptake assay (outer membrane disruption). The experiment is classed as cell-based. The conditions noted are these: NPN fluorescence after 1 h at RT, 5 mM HEPES pH 7.2 + 20 mM glucose, triplicates, result in words. How it is done:
(§3) Bacteria were taken from glycerol stocks and grown in TSB overnight. Cultures were diluted either 50 or 100 times in Lysogeny Broth (LB) and grown at 37 °C to an OD600 of 0.5. Test compounds were prepared in HEPES buffer (5 mM, pH 7.2 + 20 mM glucose) and serially diluted (25 μL per well) on 1/2 the area of black 96-well plates with a transparent bottom. N-Phenyl-1-naphthylamine (NPN) was dissolved in acetone (0.5 mM) and diluted to 40 μM in HEPES buffer (5 mM, pH 7.2 + 20 mM glucose). 25 μL of the NPN solution was added to each well. The bacterial suspension was spin down (1000g, 10 min), and the remaining cell pellet was resuspended in half the original volume of HEPES buffer (5 mM, pH 7.2 + 20 mM glucose). 50 μL of bacterial suspension was added to each well. NPN fluorescence was measured after 1 h of incubation at RT with λex 355 ± 20 nm and λem 420 ± 20 nm. The measured fluorescence signal was corrected for NPN fluorescence in the absence of compounds (bacteria in buffer + NPN) and presented as relative fluorescence units (RFUs).

Experiment [4] has as its system E. coli BW25113 (rough LPS). As to the kind of experiment: NPN uptake assay (outer membrane disruption). The settings on record: NPN fluorescence after 1 h at RT, 5 mM HEPES pH 7.2 + 20 mM glucose, triplicates, result in words. The experiment is classed as cell-based. How it is done:
as §3

Experiment [5] has as its system polymyxin-resistant, mcr-1 positive E. coli. The experiment can be described thus: NPN uptake assay (outer membrane disruption). The experiment is classed as cell-based. The conditions noted are these: E. coli mcr-1 positive; NPN fluorescence after 1 h at RT, highest concentration tested 32 μg/mL, triplicates; result in words. How it is done: as §3
The test system of experiment [6] is LPS from E. coli (O55:B5). As to the kind of experiment: Isothermal titration calorimetry (ITC), LPS binding. The conditions noted are these: compound (1 mM) into LPS (20 µM), 20 mM HEPES pH 7, 37 °C, mean and SD of three experiments. How it is done: Stock solutions of LPS (10 mg/mL, 0.5 mM) were prepared in 20 mM HEPES at pH 7 by suspension, sonication, and temperature cycling between 4 and 60 °C and stored overnight prior to use. LPS from E. coli (O55:B5) was used. Lipopeptide solutions (1 mM in 20 mM HEPES, pH 7) were titrated into a suspension of LPS (0.020 mM) in the same buffer. Control titrations included the titration of peptide into buffer and buffer into the LPS suspension to determine the corresponding heat of dilution. All binding experiments were performed using a MicroCal PEAQ-ITC Automated microcalorimeter (Malvern Panalytical Ltd., Malvern, UK). The samples were equilibrated to 37 °C prior to measurement. The titrations were conducted at 37 °C under constant stirring at 750 rpm. Each experiment consisted of an initial injection of 0.3 μL followed by 25 separate injections of 1.5 μL into the sample cell of 200 μL. The time between each injection was 180 s, and the measurements were performed with the reference power set at 5 μcal s^–1 and the feedback mode set at “low”. For all calculations performed, an estimated molecular weight of 20 kDa for LPS was applied. The calorimetric data thus obtained were analyzed using MicroCal PEAQ-ITC Analysis Software Version 1.20 (Malvern Panalytical Ltd., Malvern, UK), where the integrated heat signal is corrected for the heat of dilution of the titrant.
(Isothermal titration calorimetry measures the heat released or taken up as one component is titrated into another.)

Converted amounts (≈) assume the structure as drawn. “And” between values parts separate entries of the source, which are not always exact repeats. Equal entries are not always repeated. Positions of bridges follow the written chain, without caps; N, C: chain ends. Non-standard residues stand in square brackets, D forms with d. Residues, ends and D or L forms follow the SMILES beside them. *: point of attachment. Heptanoyl = CCCCCCC(=O)*; Dab = NCC[C@H](N)C(=O)O

Usually MIC stands for the least concentration at which growth counts as inhibited. Low values mean a more susceptible organism, high ones a less susceptible organism. Regarding `CCCCCCC(=O)N[C@@H](CCN)C(=O)N[C@H](C(=O)N[C@@H](CCN)C(=O)N[C@H]1CCNC(=O)[C@H]([C@@H](C)O)NC(=O)[C@H](CCN)NC(=O)[C@H](CCN)NC(=O)[C@H](CC(C)C)NC(=O)[C@@H](Cc2ccccc2)NC(=O)[C@H](CCN)NC1=O)[C@@H](C)O` [PmxB4, polymyxin B4] (Heptanoyl-[Dab]T[Dab][Dab][Dab][dF]L[Dab][Dab]T; lactam 4-C), the MIC in the experiment on A. baumannii ATCC 19606 turned out to be 0.5 µg/mL (≈ 0.425 µM); with E. coli ATCC 25922 it was 0.25 µg/mL (≈ 0.213 µM); in the experiment on E. coli BW25113, 0.5 µg/mL (≈ 0.425 µM); in the experiment with E. coli JW3594 (ΔwaaD), 0.06 µg/mL (≈ 0.051 µM); in the experiment on E. coli JW3596 (ΔwaaC), 0.06 µg/mL (≈ 0.051 µM); against E. coli mcr-1, 4 µg/mL (≈ 3.4 µM). For the same compound, the MIC with K. pneumoniae ATCC 13883 worked out at 0.125 µg/mL (≈ 0.106 µM); in the experiment with P. aeruginosa 2018-007, 0.5 µg/mL (≈ 0.425 µM); against P. aeruginosa ATCC 10145, 0.25 µg/mL (≈ 0.213 µM); with P. aeruginosa ATCC 27853 it was 0.25 µg/mL (≈ 0.213 µM); against P. aeruginosa NRZ03961 it was 0.25 µg/mL (≈ 0.213 µM). Further, the MIC alone was 8 µg/mL in experiment [1] (substance alone); 1 µg/mL in [2] (ATCC 25922, 18 h); 2 µg/mL in [2] (E. coli ATCC 25922, checkerboard, substance alone). The FICI in experiment [1] (combination with rifampicin, CAMHB, 18 h, 37 °C, OD600, FICI ≤ 0.5 indicates synergy) is 0.16 and 0.163. The “OM disruption (NPN uptake)” value in experiment [3] is on record as “potent OM disruption”; in experiment [4] it was “potent OM disruption”; in experiment [5], “most effective OM disruption”. For the same compound, the “ΔΔH, maximum enthalpy observed after subtraction of dilution control” value in experiment [6] is given as -7.86 ± 0.10 kcal/mol.

The record behind these values is article PMC9745799, “Polymyxin Stereochemistry and Its Role in Antibacterial Activity and Outer Membrane Disruption” (ACS Infectious Diseases, 2022).
